Measured values published in patent US9938273B2 (Plexxikon Inc., priority 2015, dated 2018).
pIC50: −log10 of the molar value.

What was measured:
FLT3-ITD = molecular target: T1, FLT3-ITD (Homo sapiens, UniProt P36888); test: AlphaScreen kinase assay with recombinant enzyme, FLT3-ITD; assay type: biochemical; conditions: 8pt; read-out: FLT3_ITD 8pt: IC50
T1 sequence (P36888 1-993): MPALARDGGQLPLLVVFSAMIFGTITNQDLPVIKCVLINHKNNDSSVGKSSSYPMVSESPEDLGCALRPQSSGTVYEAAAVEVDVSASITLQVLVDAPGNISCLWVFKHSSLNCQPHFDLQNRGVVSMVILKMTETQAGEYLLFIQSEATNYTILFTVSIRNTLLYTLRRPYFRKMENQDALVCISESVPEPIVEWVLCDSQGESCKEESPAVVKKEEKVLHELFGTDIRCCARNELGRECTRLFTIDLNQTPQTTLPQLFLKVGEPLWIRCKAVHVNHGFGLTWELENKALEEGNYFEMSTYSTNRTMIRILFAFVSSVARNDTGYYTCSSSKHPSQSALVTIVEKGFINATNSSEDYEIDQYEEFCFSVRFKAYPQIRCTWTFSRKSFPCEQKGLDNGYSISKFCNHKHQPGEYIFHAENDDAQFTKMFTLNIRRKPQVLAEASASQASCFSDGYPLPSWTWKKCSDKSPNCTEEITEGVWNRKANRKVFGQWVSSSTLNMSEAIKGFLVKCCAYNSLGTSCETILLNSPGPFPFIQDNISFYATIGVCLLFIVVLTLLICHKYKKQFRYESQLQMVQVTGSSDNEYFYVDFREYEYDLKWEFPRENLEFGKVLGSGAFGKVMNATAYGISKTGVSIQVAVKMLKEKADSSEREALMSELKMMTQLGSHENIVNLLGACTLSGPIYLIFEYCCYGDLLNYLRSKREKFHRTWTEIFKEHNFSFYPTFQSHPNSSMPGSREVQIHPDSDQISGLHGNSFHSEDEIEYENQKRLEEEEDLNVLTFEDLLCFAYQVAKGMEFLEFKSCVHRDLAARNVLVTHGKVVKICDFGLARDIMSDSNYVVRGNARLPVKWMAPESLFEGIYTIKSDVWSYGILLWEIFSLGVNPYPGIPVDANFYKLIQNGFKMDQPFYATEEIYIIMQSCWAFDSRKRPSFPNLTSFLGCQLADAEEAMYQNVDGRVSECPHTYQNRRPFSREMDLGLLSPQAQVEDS
Outline: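 Read-out: AlphaScreen proximity signal at 580 nm (680 nm excitation), lost as peptide tyrosine phosphorylation falls. Substrate Biotin-GG(EEEEY)10EE at 30 nM; IC50 runs at 10 μM (FLT3 mutants) or 100 μM (c-KIT) final. Donor beads 20 min, then acceptor beads 60 min, room temperature.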

[1] = system: MOLM-14 D835Y cells, FLT3 ITD and FLT3 D835Y; test: Cell proliferation assay (CellTiter-Glo), MOLM-14 D835Y; assay type: cell-based; conditions: Homo sapiens, 72 h, 3d-Growth, GMean
Outline: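 Three-day growth at 37 °C, 5% CO2 under compound (1 μM top final, 1:3 dilutions, eight points, 0.2% DMSO), read as ATP luminescence by CellTiter-Glo for IC50. Cells: MOLM-14 with FLT3 ITD plus D835Y or F691L, and IL-3-deprived Ba/F3 transfected with FLT3 ITD/D835Y, 1×10^4 per well.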

| SMILES | pIC50 (FLT3-ITD) | pIC50 [1] |
| --- | --- | --- |
| CC(C)(C#N)NC(=O)c1cccc(-c2cnc3[nH]c(-c4cccc(N5CCCS5(=O)=O)c4)cc3c2)n1 [Compound P-0199, N-(1-cyano-1-methyl-ethyl)-6-[2-[3-(1,1-dioxo-1,2-thiazolidin-2-yl)phenyl]-1H-pyrrolo[2,3-b]pyridin-5-yl]pyridine-2-carboxamide] | 5.00 to 10.00 | 5.00 to 10.00 |
| CNC1CN(C(=O)c2cccc(-c3cnc4[nH]c(-c5ccccc5)cc4c3)n2)C1 [Compound P-0052, [3-(methylamino)azetidin-1-yl]-[6-(2-phenyl-1H-pyrrolo[2,3-b]pyridin-5-yl)-2-pyridyl]methanone] | 5.00 to 10.00 | 5.00 to 10.00 |
| c1ccc(-c2cc3cc(-c4cccc(OC5CCNCC5)n4)cnc3[nH]2)cc1 [Compound P-0050, 2-phenyl-5-[6-(4-piperidyloxy)-2-pyridyl]-1H-pyrrolo[2,3-b]pyridine] | 5.00 to 10.00 | – |
| CN1CCC(NC(=O)c2n[nH]c3ccc(-c4cnc5[nH]c(-c6ccccc6)cc5c4)cc23)CC1 [Compound P-0022, N-(1-methyl-4-piperidyl)-5-(2-phenyl-1H-pyrrolo[2,3-b]pyridin-5-yl)-1H-indazole-3-carboxamide] | 5.00 to 10.00 | – |
| CC1(C#N)CCN(C(=O)c2cccc(-c3cnc4[nH]c(-c5ccccc5)cc4c3)n2)CC1 [Compound P-0094, 4-methyl-1-[6-(2-phenyl-1H-pyrrolo[2,3-b]pyridin-5-yl)pyridine-2-carbonyl]piperidine-4-carbonitrile] | 5.00 to 10.00 | – |
| CC(C)(C#N)NC(=O)c1cccc(-c2cnc3[nH]c(-c4cnn(C(=O)C5CC5)c4)cc3c2)n1 [Compound P-0184, N-(1-cyano-1-methyl-ethyl)-6-[2-[1-(cyclopropanecarbonyl)pyrazol-4-yl]-1H-pyrrolo[2,3-b]pyridin-5-yl]pyridine-2-carboxamide] | 5.00 to 10.00 | – |
| CC(C)(C)OC(=O)NC1CCN(C(=O)c2cccc(-c3cnc4[nH]c(-c5ccccc5)cc4c3)n2)CC1 [Compound P-0017, tert-butyl N-[1-[6-(2-phenyl-1H-pyrrolo[2,3-b]pyridin-5-yl)pyridine-2-carbonyl]-4-piperidyl]carbamate] | 5.00 to 10.00 | – |
| CNC1CCN(C(=O)c2n[nH]c3ccc(-c4cnc5[nH]c(-c6ccccc6)cc5c4)cc23)C1 (stereo not drawn) [Compound P-0028, [3-(methylamino)pyrrolidin-1-yl]-[5-(2-phenyl-1H-pyrrolo[2,3-b]pyridin-5-yl)-1H-indazol-3-yl]methanone] | 5.00 to 10.00 | – |
| O=C(c1cccc(-c2cnc3[nH]c(-c4ccccc4)cc3c2)n1)N1CCC(CO)CC1 [Compound P-0023, [4-(hydroxymethyl)-1-piperidyl]-[6-(2-phenyl-1H-pyrrolo[2,3-b]pyridin-5-yl)-2-pyridyl]methanone] | 5.00 to 10.00 | – |
| CC(C)(C#N)NC(=O)c1cccc(-c2cnc3[nH]c(-c4cnn(C(F)F)c4)c(Cl)c3c2)n1 [Compound P-0185, 6-[3-chloro-2-[1-(difluoromethyl)pyrazol-4-yl]-1H-pyrrolo[2,3-b]pyridin-5-yl]-N-(1-cyano-1-methyl-ethyl)pyridine-2-carboxamide] | 5.00 to 10.00 | – |
| CC1CCN(C(=O)c2n[nH]c3ccc(-c4cnc5[nH]c(-c6ccccc6)cc5c4)cc23)CC1 [Compound P-0027, (4-methyl-1-piperidyl)-[5-(2-phenyl-1H-pyrrolo[2,3-b]pyridin-5-yl)-1H-indazol-3-yl]methanone] | 4.30 to 5.00 | – |
| NCC1CCN(C(=O)c2cccc(-c3cnc4[nH]c(-c5ccccc5)cc4c3)n2)CC1 [Compound P-0026, [4-(aminomethyl)-1-piperidyl]-[6-(2-phenyl-1H-pyrrolo[2,3-b]pyridin-5-yl)-2-pyridyl]methanone] | 5.00 to 10.00 | – |
| CC(C)(C#N)NC(=O)c1cccc(-c2cnc3[nH]c(C4=CCS(=O)(=O)CC4)cc3c2)n1 [Compound P-0186, N-(1-cyano-1-methyl-ethyl)-6-[2-(1,1-dioxo-3,6-dihydro-2H-thiopyran-4-yl)-1H-pyrrolo[2,3-b]pyridin-5-yl]pyridine-2-carboxamide] | 5.00 to 10.00 | – |
| O=C(c1cccc(-c2cnc3[nH]c(-c4ccccc4)cc3c2)n1)N1CCC(C(F)(F)F)C1 (stereo not drawn) [Compound P-0103, [6-(2-phenyl-1H-pyrrolo[2,3-b]pyridin-5-yl)-2-pyridyl]-[3-(trifluoromethyl)pyrrolidin-1-yl]methanone] | 5.00 to 10.00 | – |
| CN(C)C1CCN(C(=O)c2cccc(-c3cnc4[nH]c(-c5ccccc5)cc4c3)n2)C1 (stereo not drawn) [Compound P-0104, [3-(dimethylamino)pyrrolidin-1-yl]-[6-(2-phenyl-1H-pyrrolo[2,3-b]pyridin-5-yl)-2-pyridyl]methanone] | 5.00 to 10.00 | – |
| CONC(=O)c1cccc(-c2cnc3[nH]c(-c4ccccc4)cc3c2)c1 [Compound P-0003, N-methoxy-3-(2-phenyl-1H-pyrrolo[2,3-b]pyridin-5-yl)benzamide] | 5.00 to 10.00 | – |
| CNC(=O)Nc1ccc(-c2cnc3[nH]c(-c4ccccc4)cc3c2)cc1 [Compound P-0006, 1-methyl-3-[4-(2-phenyl-1H-pyrrolo[2,3-b]pyridin-5-yl)phenyl]urea] | 5.00 to 10.00 | – |
| N[C@H]1CCN(C(=O)c2ncc(-c3cnc4[nH]c(-c5ccccc5)cc4c3)s2)C1 [Compound P-0054, [(3S)-3-aminopyrrolidin-1-yl]-[5-(2-phenyl-1H-pyrrolo[2,3-b]pyridin-5-yl)thiazol-2-yl]methanone] | 5.00 to 10.00 | – |
| CC(=O)NC1CCN(C(=O)c2cccc(-c3cnc4[nH]c(-c5ccccc5)cc4c3)n2)CC1 [Compound P-0020, N-[1-[6-(2-phenyl-1H-pyrrolo[2,3-b]pyridin-5-yl)pyridine-2-carbonyl]-4-piperidyl]acetamide] | 5.00 to 10.00 | – |
| CC(C)(C#N)NC(=O)c1cccc(-c2cnc3[nH]c(-c4cscn4)cc3c2)n1 [Compound P-0167, N-(1-cyano-1-methyl-ethyl)-6-(2-thiazol-4-yl-1H-pyrrolo[2,3-b]pyridin-5-yl)pyridine-2-carboxamide] | 5.00 to 10.00 | – |
| CS(=O)(=O)NC1CCN(C(=O)c2cccc(-c3cnc4[nH]c(-c5ccccc5)cc4c3)n2)C1 (stereo not drawn) [Compound P-0101, N-[1-[6-(2-phenyl-1H-pyrrolo[2,3-b]pyridin-5-yl)pyridine-2-carbonyl]pyrrolidin-3-yl]methanesulfonamide] | 5.00 to 10.00 | – |
| O=C(c1cccc(-c2cnc3[nH]c(-c4ccccc4)cc3c2)n1)N1CCC(N2CCOCC2)C1 (stereo not drawn) [Compound P-0102, (3-morpholinopyrrolidin-1-yl)-[6-(2-phenyl-1H-pyrrolo[2,3-b]pyridin-5-yl)-2-pyridyl]methanone] | 5.00 to 10.00 | – |
| COC1CCN(C(=O)c2cccc(-c3cnc4[nH]c(-c5ccccc5)cc4c3)n2)CC1 [Compound P-0098, (4-methoxy-1-piperidyl)-[6-(2-phenyl-1H-pyrrolo[2,3-b]pyridin-5-yl)-2-pyridyl]methanone] | 5.00 to 10.00 | – |
| N#CC1CCN(C(=O)c2cccc(-c3cnc4[nH]c(-c5ccc(F)cc5)cc4c3)n2)C1 (stereo not drawn) [Compound P-0116, 1-[6-[2-(4-fluorophenyl)-1H-pyrrolo[2,3-b]pyridin-5-yl]pyridine-2-carbonyl]pyrrolidine-3-carbonitrile] | 5.00 to 10.00 | – |
| CCOC(=O)C1CCN(C(=O)c2cccc(-c3cnc4[nH]c(-c5ccccc5)cc4c3)n2)CC1 [Compound P-0025, ethyl 1-[6-(2-phenyl-1H-pyrrolo[2,3-b]pyridin-5-yl)pyridine-2-carbonyl]piperidine-4-carboxylate] | 5.00 to 10.00 | – |
| N[C@H]1CCN(C(=O)c2n[nH]c3ccc(-c4cnc5[nH]c(-c6ccccc6)cc5c4)cc23)C1 [Compound P-0016, [(3S)-3-aminopyrrolidin-1-yl]-[5-(2-phenyl-1H-pyrrolo[2,3-b]pyridin-5-yl)-1H-indazol-3-yl]methanone] | 5.00 to 10.00 | – |
| NC(=O)Nc1ccc(-c2cnc3[nH]c(-c4ccccc4)cc3c2)cc1 [Compound P-0005, [4-(2-phenyl-1H-pyrrolo[2,3-b]pyridin-5-yl)phenyl]urea] | 5.00 to 10.00 | – |
| N[C@H]1CCN(C(=O)c2cccc(-c3cnc4[nH]c(-c5ccccc5)cc4c3)n2)C1 [Compound P-0015, [(3S)-3-aminopyrrolidin-1-yl]-[6-(2-phenyl-1H-pyrrolo[2,3-b]pyridin-5-yl)-2-pyridyl]methanone] | 5.00 to 10.00 | – |
